Assay [1] addresses T1, Ephrin type-A receptor 3 (Homo sapiens) (UniProt P29320).
T1 sequence (whole entry): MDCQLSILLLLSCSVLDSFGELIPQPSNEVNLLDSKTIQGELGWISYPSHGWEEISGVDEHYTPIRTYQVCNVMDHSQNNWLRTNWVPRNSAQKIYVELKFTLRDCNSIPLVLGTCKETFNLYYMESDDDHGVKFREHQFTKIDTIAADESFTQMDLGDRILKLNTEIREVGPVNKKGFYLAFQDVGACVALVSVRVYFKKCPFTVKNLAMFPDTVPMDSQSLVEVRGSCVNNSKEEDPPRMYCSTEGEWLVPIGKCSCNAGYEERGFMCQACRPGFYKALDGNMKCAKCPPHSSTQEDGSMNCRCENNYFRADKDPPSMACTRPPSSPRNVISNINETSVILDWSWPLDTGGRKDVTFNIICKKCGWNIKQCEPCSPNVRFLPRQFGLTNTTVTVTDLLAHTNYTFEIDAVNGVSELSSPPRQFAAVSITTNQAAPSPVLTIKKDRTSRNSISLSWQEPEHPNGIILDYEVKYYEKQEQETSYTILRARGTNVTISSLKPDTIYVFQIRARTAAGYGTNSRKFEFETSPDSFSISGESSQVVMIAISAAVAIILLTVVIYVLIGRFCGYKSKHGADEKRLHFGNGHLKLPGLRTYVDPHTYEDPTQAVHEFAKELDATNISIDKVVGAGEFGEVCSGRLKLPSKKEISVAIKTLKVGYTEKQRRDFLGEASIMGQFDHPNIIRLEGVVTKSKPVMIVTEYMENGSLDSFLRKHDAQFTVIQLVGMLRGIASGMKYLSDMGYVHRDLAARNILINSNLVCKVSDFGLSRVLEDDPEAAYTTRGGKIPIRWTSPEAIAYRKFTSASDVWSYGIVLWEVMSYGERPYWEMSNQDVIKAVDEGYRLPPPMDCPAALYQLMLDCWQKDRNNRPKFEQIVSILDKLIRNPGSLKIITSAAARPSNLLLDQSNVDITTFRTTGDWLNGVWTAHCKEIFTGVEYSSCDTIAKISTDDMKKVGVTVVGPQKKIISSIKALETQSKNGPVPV
The note with it: at 10 µM.

For assay [2], the target named is Tyrosine-protein kinase Fer (Homo sapiens) (UniProt P16591). The assay is described as follows: Selectivity interaction (KinomeScan (DiscoverX)) EUB0000655a FER. The settings on record: at 10 µM.
Tyrosine-protein kinase Fer (Homo sapiens), sequence (P16591 whole entry, looked up): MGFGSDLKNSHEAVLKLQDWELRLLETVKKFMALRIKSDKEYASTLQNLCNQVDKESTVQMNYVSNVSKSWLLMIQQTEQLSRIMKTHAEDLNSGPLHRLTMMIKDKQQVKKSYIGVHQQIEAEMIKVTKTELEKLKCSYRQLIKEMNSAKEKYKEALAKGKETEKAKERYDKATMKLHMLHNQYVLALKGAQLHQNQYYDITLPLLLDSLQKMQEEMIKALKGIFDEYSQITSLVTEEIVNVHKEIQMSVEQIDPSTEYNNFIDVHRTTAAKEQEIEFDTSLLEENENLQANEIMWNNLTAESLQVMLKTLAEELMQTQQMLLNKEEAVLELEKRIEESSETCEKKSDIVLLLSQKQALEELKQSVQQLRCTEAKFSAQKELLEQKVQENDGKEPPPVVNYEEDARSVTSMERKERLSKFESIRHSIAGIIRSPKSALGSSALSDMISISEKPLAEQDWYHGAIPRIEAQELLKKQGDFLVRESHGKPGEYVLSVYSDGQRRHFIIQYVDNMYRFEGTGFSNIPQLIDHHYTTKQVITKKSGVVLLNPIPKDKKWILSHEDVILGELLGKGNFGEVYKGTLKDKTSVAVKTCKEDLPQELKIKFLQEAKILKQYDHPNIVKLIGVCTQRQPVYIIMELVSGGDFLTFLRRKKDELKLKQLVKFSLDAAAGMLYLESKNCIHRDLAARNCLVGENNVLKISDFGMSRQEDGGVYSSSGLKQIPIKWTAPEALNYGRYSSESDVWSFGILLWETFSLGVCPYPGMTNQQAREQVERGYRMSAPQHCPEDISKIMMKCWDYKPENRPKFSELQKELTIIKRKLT
Assay [3] deals with T2, Serine/threonine-protein kinase RIO3 (Homo sapiens) (UniProt O14730).
T2 sequence (whole entry): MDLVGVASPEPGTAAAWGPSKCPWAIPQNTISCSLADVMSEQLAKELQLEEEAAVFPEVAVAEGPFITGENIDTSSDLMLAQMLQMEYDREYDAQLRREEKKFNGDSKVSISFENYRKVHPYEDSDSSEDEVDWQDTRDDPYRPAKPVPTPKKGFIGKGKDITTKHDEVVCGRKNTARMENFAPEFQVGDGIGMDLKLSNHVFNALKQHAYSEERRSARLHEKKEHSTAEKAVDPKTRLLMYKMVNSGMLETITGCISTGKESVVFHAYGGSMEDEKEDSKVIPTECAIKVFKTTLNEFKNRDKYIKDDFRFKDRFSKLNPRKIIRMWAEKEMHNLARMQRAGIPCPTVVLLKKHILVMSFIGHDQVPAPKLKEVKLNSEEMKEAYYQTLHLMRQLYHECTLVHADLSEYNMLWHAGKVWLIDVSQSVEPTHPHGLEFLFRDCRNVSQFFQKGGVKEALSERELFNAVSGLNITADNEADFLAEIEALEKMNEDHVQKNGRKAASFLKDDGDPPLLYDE
Nature of the assay: Selectivity interaction (KinomeScan (DiscoverX)) EUB0001868a RIOK3. The settings on record: at 1 µM.

Assay [4] deals with Serine/threonine-protein kinase VRK2 (Homo sapiens) (UniProt Q86Y07). The assay is described as follows: Selectivity interaction (KinomeScan (DiscoverX)) EUB0000666a VRK2. The note with it: at 10 µM.
Serine/threonine-protein kinase VRK2 (Homo sapiens), sequence (Q86Y07 whole entry): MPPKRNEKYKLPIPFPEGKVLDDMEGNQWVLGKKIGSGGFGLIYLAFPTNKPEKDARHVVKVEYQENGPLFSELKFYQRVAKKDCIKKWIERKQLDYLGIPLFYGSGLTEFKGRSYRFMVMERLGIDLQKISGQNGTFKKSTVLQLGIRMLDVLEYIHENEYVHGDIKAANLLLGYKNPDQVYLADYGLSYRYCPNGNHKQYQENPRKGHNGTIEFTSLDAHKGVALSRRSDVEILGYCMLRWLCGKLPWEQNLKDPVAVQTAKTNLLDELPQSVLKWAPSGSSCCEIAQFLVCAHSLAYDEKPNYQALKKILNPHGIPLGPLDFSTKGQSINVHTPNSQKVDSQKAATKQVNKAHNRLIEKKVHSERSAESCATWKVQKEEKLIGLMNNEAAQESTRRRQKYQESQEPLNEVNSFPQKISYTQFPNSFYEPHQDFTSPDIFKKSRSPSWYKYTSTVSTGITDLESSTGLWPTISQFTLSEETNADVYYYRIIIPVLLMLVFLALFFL
The target in assay [5] is T3, Serine/threonine-protein kinase TAO3 (Homo sapiens) (UniProt Q9H2K8).
T3 sequence (whole entry): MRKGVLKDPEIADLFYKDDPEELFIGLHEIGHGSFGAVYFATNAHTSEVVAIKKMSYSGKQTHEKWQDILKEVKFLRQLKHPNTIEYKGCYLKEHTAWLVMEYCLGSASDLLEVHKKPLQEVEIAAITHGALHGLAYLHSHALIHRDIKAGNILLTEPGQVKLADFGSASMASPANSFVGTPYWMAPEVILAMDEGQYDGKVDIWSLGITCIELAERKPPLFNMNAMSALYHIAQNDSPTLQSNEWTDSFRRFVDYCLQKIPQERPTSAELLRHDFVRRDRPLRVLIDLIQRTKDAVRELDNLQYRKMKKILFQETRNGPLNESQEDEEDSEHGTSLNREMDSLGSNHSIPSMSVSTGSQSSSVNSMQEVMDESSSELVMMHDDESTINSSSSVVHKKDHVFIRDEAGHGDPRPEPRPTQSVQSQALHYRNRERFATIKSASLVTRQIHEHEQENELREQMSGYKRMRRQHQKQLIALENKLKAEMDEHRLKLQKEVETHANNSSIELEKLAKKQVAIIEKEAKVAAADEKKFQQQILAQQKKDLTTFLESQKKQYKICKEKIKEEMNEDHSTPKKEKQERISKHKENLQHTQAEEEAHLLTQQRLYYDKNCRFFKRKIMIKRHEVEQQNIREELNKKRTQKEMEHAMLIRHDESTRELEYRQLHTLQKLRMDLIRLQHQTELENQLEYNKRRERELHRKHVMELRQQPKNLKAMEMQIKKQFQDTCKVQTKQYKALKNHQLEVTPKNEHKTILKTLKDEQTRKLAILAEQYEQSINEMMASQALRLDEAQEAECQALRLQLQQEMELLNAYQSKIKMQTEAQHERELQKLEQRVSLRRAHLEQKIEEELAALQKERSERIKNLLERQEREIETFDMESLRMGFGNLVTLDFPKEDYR
The assay is described as follows: Selectivity interaction (LanthaScreen Eu Kinase Binding Assay) EUB0001632a TAOK3. The settings on record: at 10 µM.

For assay [6], the target named is Non-receptor tyrosine-protein kinase TYK2 (Homo sapiens, UniProt P29597). The assay is described as follows: Selectivity interaction (ActivX KiNativ screen (kinase selectivity in THP-1 cell lysates)) EUB0000639a TYK2. The note with it: lysate, at 1 µM. Type of assay: subcellular.
Non-receptor tyrosine-protein kinase TYK2, sequence (P29597 whole entry): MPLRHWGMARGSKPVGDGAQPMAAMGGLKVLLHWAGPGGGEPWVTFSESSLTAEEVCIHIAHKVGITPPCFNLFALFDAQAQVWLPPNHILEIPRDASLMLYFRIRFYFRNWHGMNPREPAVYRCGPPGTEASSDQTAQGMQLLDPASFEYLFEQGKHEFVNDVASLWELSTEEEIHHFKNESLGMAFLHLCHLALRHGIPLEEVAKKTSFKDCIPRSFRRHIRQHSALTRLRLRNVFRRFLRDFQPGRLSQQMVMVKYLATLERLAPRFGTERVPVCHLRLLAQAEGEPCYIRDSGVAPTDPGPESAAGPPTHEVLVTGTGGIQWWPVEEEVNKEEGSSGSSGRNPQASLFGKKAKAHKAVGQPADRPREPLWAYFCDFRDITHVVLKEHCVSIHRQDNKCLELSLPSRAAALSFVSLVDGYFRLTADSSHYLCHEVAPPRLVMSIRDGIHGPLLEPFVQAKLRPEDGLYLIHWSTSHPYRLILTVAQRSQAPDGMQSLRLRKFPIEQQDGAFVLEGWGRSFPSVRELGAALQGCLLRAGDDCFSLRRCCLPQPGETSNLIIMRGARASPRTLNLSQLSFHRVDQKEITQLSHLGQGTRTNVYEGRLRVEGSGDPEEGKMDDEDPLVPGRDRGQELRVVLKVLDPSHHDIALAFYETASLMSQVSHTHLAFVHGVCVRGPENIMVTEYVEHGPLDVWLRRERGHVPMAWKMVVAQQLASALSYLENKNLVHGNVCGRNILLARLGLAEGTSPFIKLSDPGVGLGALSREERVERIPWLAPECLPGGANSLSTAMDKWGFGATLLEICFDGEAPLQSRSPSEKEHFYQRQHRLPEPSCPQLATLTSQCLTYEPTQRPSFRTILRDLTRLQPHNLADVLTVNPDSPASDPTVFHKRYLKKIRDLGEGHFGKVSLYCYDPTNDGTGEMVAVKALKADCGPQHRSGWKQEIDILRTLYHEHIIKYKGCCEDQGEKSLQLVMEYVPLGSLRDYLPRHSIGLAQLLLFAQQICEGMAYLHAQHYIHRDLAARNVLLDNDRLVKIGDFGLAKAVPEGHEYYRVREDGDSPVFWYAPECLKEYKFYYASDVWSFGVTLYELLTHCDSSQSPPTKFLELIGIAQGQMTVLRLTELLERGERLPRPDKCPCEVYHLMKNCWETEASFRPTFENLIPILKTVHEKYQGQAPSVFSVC
Assay [7] concerns the target Serine/threonine-protein kinase B-raf (Homo sapiens) (UniProt P15056). Nature of the assay: Selectivity interaction (Kinase panel (KiNativ target engagement assay in Jurkat cells)) EUB0001635a BRAF. The assay is classed as cell-based. The note with it: Selectivity number of off-targets 0.0, Selectivity number of targets 233.0, Source Knowledge https://www.sciencedirect.com/science/article/pii/S2451945619300674?via%3Dihub, at 1 µM.

SMILES strings stand for the structures.

Serine/threonine-protein kinase B-raf (Homo sapiens), sequence (P15056 whole entry): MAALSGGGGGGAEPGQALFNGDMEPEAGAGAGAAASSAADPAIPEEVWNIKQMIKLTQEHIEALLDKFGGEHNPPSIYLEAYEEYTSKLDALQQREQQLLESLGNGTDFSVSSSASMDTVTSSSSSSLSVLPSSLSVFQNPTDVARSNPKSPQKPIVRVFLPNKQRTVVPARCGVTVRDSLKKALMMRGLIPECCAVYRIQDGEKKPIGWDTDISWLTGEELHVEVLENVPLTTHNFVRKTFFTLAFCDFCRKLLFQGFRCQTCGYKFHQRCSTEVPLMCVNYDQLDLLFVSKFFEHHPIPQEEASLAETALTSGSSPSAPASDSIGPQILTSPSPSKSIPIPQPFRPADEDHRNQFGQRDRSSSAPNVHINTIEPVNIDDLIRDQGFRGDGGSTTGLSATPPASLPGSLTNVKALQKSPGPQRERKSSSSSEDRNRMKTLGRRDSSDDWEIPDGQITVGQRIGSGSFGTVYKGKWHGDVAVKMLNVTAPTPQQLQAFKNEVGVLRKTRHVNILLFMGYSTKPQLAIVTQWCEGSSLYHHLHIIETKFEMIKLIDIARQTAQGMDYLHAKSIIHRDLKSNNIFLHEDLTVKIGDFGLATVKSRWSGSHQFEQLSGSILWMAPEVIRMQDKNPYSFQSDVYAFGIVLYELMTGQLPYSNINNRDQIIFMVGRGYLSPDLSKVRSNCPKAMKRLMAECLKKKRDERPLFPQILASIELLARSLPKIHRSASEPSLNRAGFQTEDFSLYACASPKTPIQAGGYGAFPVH

For `Cc1cc([C@@H](C)Nc2ccccc2C(=O)O)c2nc(N3CCOCC3)cc(=O)n2c1` [AZD-6482], in assay [1], the % of control was 79%.

As to `CN(C)CCOc1ccc(-c2nc(-c3ccncc3)c(-c3ccc4c(c3)CC/C4=N\O)[nH]2)cc1`, the % of control in assay [2] was found to be 100%.

`Cc1cc(-c2ccnc(Nc3cnn(C)c3)n2)ccc1CNC(=O)N1CC(OC(C)C)C1`: in assay [3], the % of control worked out at 19%.

`O=C(NOC[C@H](O)CO)c1ccc(F)c(F)c1Nc1ccc(I)cc1F`: the % of control in assay [4] was found to be 100%.

Regarding `Cn1cc(-n2cnc3c(NCc4nc5cc(Cl)c(Cl)cc5[nH]4)nc(N4CCOCC4)nc32)cn1`, the % of inhibition in assay [5] was 7.54%.

Turning to `CC[C@@H]1[C@H](F)C(=O)N[C@@H]1COc1nccc2cc(C(N)=O)c(OC)cc12` [ZIMLOVISERTIB], the % of inhibition in assay [6] was -8.7%.

Molecule `C=CC(=O)Nc1ccc(C(=O)Nc2[nH]nc3c2CN(C(=O)N[C@H](CN(C)C)c2ccccc2)C3(C)C)cc1` registered a % of engagement in assay [7] of 2.4%.

The values are drawn from ChEMBL document CHEMBL5465560, “Selectivity Literature for EUbOPEN Chemogenomic Library” (2024).
